This is an account of results in patent US9332764B2, “Aqueous composition for inactivating sporulated and/or non-sporulated coccidian parasites” (Ecolab USA Inc., priority 2007, dated 2016).

“Also recorded” adds a separate entry of the source.

In experiment [1] the test system is non-sporulated oocysts of Eimeria papillata. The experiment can be described thus: Incubation of fresh non-sporulated oocysts, then check for sporulation after one week at 25° C. It counts as cell-based. As to conditions: incubation 60 min; for result (sporulation): room temperature, no surfactant. Here is the method: (§1) For the experiments 20 g female Balb/C-mice were used. […] The flotation medium was prepared containing 124.5 g NaCl and 435.8 g saccharide which was diluted with water and filled up to 1 litre. Fresh non-sporulated oocysts were prepared. Subsequently the Balb/C-mice were infected with 20,000 sporulated oocysts. From the fourth day after infection, fresh mouse excrement is collected and isolated by flotation. Residual flotation medium is removed by washing three times with clean water.
(§2) A chlorine dioxide solution is prepared by mixing a solution containing sodium chlorite and an acidic solution. By reaction chlorine dioxide is produced. The solution comprises 120 ppm chorine dioxide. By further dilution, chlorine dioxide solutions of 40, 20, 10, 4, 1, and 0.5 ppm are produced which are immediately used for the experiments.
Oocysts of Eimeria papillata were filtered from fresh mice excrements and incubated for 60 min with freshly produced chlorine dioxide solution at concentrations of 40, 20, 10, 4, 1, 0.5 ppm at room temperature. After 60 min incubation time the oocyst suspensions were washed with water and cultured for sporulation in 1 ml water. The probes were incubated for one week at 25° C. As control a non-treated, non-sporulated oocyst sample was used which was also incubated for one week at 25° C. After seven days it was checked if a sporulation occurred. (see table 1)
In the same way experiments were carried out with the aqueous composition according to the invention comprising chlorine dioxide and as an anionic surfactant Dofax 2A1 (Dow Chemicals) which is a mixture of a disodium oxybis(dodecyl benzenesulfonate) and a dodecyl(sulfophenoxy)disodium salt of benzene sulfonic acid. The composition comprises between 0.5 to 25 ppm chlorine dioxide and 0.2 wt. % of the anionic surfactant. (see table 2)

Experiment [2] relates to sporulated oocysts of Eimeria papillata. The experiment can be described thus: Infection of mice with treated sporulated oocysts, excretion of oocysts in excrements. It counts as in vivo, Eimeria papillata in Balb/C-mice. Also on record: key to excretion 4 dpi / excretion 5 dpi / excretion 6 dpi / excretion 7 dpi: +++: massive excretion of oocysts; ++: excretion of many oocysts; +: excretion of few oocysts; −: no oocysts detectable. To be noted: for excretion 4 dpi / excretion 5 dpi / excretion 6 dpi / excretion 7 dpi: 60 min; for excretion 4 dpi: 4 days after infection; for excretion 5 dpi: 5 days after infection; for excretion 6 dpi: 6 days after infection; for excretion 7 dpi: 7 days after infection. The method, then:
as §1
Sporulated infectious oocysts were incubated at 25° C. for one week.
as §2
A further series of experiments was performed in order to evaluate the inactivation pattern of sporulated oocysts. […] After that the oocyst suspensions were washed with water for three times and 20,000 oocysts were orally administered to a mouse. Per concentration one mouse was used. In addition two mice were treated, each with 20,000 non-treated, sporulated oocysts for control purposes. From the fourth day after infection samples of the excrements of the mice were taken daily and the presence of oocysts of Eimeria papillata was examined. (see table 3) […]

For experiment [3], the system named is sporulated and/or non-sporulated Coccidian parasites. The experiment is described as follows: Inactivation of Coccidian parasites by chlorine dioxide solutions, general statements. As to conditions: chlorine dioxide alone, concentrations below 120 ppm. An excerpt:
Therefore the disadvantage of the method described in JP 2004-210726 is that high concentrations of chlorine dioxide have to be used in order to sufficiently inactivate the Coccidian parasites. The inventors of the present invention have performed experiments to lower the limit of the concentration of chlorine dioxide in a solution which is still effective, inactivating Coccidian parasites.
In addition the inventors have also investigated whether combinations of chlorine dioxide with other surfactants like for example alkyl sulfonates, amine oxides, ethoxylated polyalcohols, quaternary ammonium compounds, lauryl hydroxy sulfane, and alkyl ether sulfates have an effect in combination with lower concentrations of chlorine dioxide.

Experiment [4] has the same test system. To be noted: preferably around 800 ppm; cited from earlier work.
The next experiment concerns Eimeria oocysts. As to conditions: cited from earlier work.
Where [5] appears, read: oocysts treated with ClO2 4 ppm.
The mark [6] stands for this setting: oocysts treated with ClO2 10 ppm.
[7] abbreviates: oocysts treated with ClO2 20 ppm.
[8] abbreviates: oocysts treated with ClO2 40 ppm.
[9] abbreviates: oocysts treated with ClO2 120 ppm.
[10] abbreviates: oocysts treated with ClO2 240 ppm.

As for `[O][Cl+][O-]` [chlorine dioxide solution, chlorine dioxide], the “result (sporulation)” value in experiment [1] (ClO2 0.5 ppm) was “complete”; in experiment [1] (ClO2 1 ppm) it was “complete”; in experiment [1] (ClO2 4 ppm), “complete”; in experiment [1] (ClO2 10 ppm), “complete”; in experiment [1] (ClO2 20 ppm), “complete”; in experiment [1] (ClO2 40 ppm) it was “partial”. Also, in experiment [1] (chlorine dioxide only, concentrations below 40 ppm), the sporulation entry is “complete or partial sporulation”. In experiment [2] (chlorine dioxide between 4 and 40 ppm, incubation 60 min), the “excretion of oocysts of Eimeria papillata in Balb/C-mice” value was “cannot be avoided”. The detectable oocysts entry in experiment [2] (concentrations of 120 ppm and 240 ppm) is “no detectable oocysts”. The “excretion 4 dpi” value was “++” in experiment [2] (setting [5]); “++” in experiment [2] (setting [6]); “++” in experiment [2] (setting [7]); “+” in experiment [2] (setting [8]); “−” in experiment [2] (setting [9]); “−” in experiment [2] (setting [10]). The “excretion 5 dpi” value is listed as “++” in experiment [2] (setting [5]); “++” in experiment [2] (setting [6]); “++” in experiment [2] (setting [7]); “+” in experiment [2] (setting [8]); “−” in experiment [2] (setting [9]); “−” in experiment [2] (setting [10]). The “excretion 6 dpi” value is “++” in experiment [2] (setting [5]); “++” in experiment [2] (setting [6]); “+” in experiment [2] (setting [7]); “+” in experiment [2] (setting [8]); “−” in experiment [2] (setting [9]); “−” in experiment [2] (setting [10]). Also, the “excretion 7 dpi” value in experiment [2] (setting [5]) was “+”; in experiment [2] (setting [6]) it was “+”; in experiment [2] (setting [7]), “+”; in experiment [2] (setting [8]) it was “+”; in experiment [2] (setting [9]), “−”; in experiment [2] (setting [10]), “−”. Further, in experiment [3], the “inactivation / eradication of coccoid organisms” value is listed as “ineffective; also recorded: will not inactivate”. The “chlorine dioxide concentration known to completely inactivate sporulated and/or non-sporulated Coccidian parasites” value in experiment [4] is listed as “above 200 ppm”.

With `O=S(=O)([O-])[O-].[Cu+2]` [copper sulfate], the “effectiveness for eradication of coccoid oocysts” value (from here on “effectiveness for eradication”) in the experiment on Eimeria oocysts was “ineffective”.

Turning to `C=O` [formalin], the “effectiveness for eradication” value with Eimeria oocysts was “ineffective”.

For the compound `O=CCCCC=O` [glutaraldehyde], the “effectiveness for eradication” value in the experiment with Eimeria oocysts is listed as “ineffective”.

As for `CC(=O)OO` [peracetic acid], the “effectiveness for eradication” value in the experiment on Eimeria oocysts is recorded as “ineffective”.

`[K+].[K+].[O]=[Cr](=[O])([O-])[O][Cr](=[O])(=[O])[O-]` [potassium dichromate]: the “effectiveness for eradication” value in the experiment on Eimeria oocysts is reported as “ineffective”.

Regarding `[K+].[OH-]` [potassium hydroxide], the “effectiveness for eradication” value in the experiment on Eimeria oocysts is “ineffective”.

For `[I-].[K+]` [potassium iodide], the “effectiveness for eradication” value with Eimeria oocysts is given as “ineffective”.

Consider `OCl` [sodium hypochlorite], for which, in the experiment with Eimeria oocysts, the “effectiveness for eradication” value was “ineffective”.

Turning to `O=S(=O)(O)O` [sulfuric acid], the “effectiveness for eradication” value with Eimeria oocysts was “ineffective”.

benzalkonium chloride: the “effectiveness for eradication” value in the experiment on Eimeria oocysts is given as “ineffective”.

On to cresylic acid, for which the “effectiveness for eradication” value with Eimeria oocysts is reported as “ineffective”.
